Key:
Assay in all cases: MIC, broth microdilution (CLSI), substance alone or ATB combined with compound at 4 or 8 μg/mL
[1] = system: KPN 6299; assay type: cell-based, K. pneumoniae
Procedure, shortened: (§1)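 CLSI M7-A7 broth microdilution. ca-MHB, 5·10^5 CFU/mL log-phase cells, 16-20 h, 35° C, ambient air. Fosfomycin wells + 25 μg/ml glucose-6-phosphate. Visual MIC read.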

[2] = system: KPN UFR42; assay type: cell-based, K. pneumoniae; conditions: KPN UFR42
Procedure, shortened: as §1

[3] = system: KPN BAA-1898; assay type: cell-based, K. pneumoniae; conditions: KPN BAA-1898
Procedure, shortened: as §1

[4] = system: ECO UFR39; assay type: cell-based, E. coli; conditions: ECO UFR39
Procedure, shortened: as §1

[5] = system: ECO 190317; assay type: cell-based, E. coli; conditions: ECO 190317
Procedure, shortened: as §1

[6] = system: SPN 49619; assay type: cell-based, S. pneumoniae; conditions: SPN 49619
Procedure, shortened: as §1

SMILES: C[C@@H](O)[C@H]1C(=O)N2C(C(=O)O)=C(SCCN=CN)C[C@H]12 [IMI]
- MIC ATB alone ([1]; antibiotic alone): 0.25 µg/mL
- MIC ATB combined with Example 1 @8 μg/ml ([1]; with Example 1 @8 μg/ml): 1 µg/mL
- MIC ATB combined with Example 1 @8 μg/ml ([1]; with Example 1 at 8 μg/ml): 1 µg/mL
- MIC ATB combined with Example 7 @8 μgml ([1]; with Example 7 at 8 μg/ml): 4 µg/mL
- MIC ATB combined with Example 9 @4 μg/ml ([1]; with Example 9 @4 μg/ml): <0.031 µg/mL
- MIC ATB combined with Example 9 @4 μg/ml ([1]; with Example 9 at 4 μg/ml): <0.031 µg/mL
- MIC ATB combined with Example 11 @8 μg/ml ([1]; with Example 11 at 8 μg/ml): <0.031 µg/mL
- MIC ATB combined with Example 12 @8 μg/ml ([1]; with Example 12 at 8 μg/ml): <0.031 µg/mL
- MIC ATB combined with Example 13 @8 μg/ml ([1]; with Example 13 at 8 μg/ml): 1 µg/mL
- MIC ATB combined with Example 14 @8 μg/ml ([1]; with Example 14 at 8 μg/ml): <0.031 µg/mL
- MIC ATB combined with Example 15 @4 μgml ([1]; with Example 15 at 4 μg/ml): <0.031 µg/mL
- MIC ATB combined with Example 16 @4 μg/ml ([1]; with Example 16 at 4 μg/ml): <0.031 µg/mL
- MIC ATB alone ([2]; antibiotic alone): 32 µg/mL
- MIC ATB combined with Example 1 @8 μg/ml ([2]; with Example 1 @8 μg/ml): >32 µg/mL
- MIC ATB combined with Example 1 @8 μg/ml ([2]; with Example 1 at 8 μg/ml): >32 µg/mL
- MIC ATB combined with Example 7 @8 μgml ([2]; with Example 7 at 8 μg/ml): >32 µg/mL
- MIC ATB combined with Example 9 @4 μg/ml ([2]; with Example 9 @4 μg/ml): 32 µg/mL
- MIC ATB combined with Example 9 @4 μg/ml ([2]; with Example 9 at 4 μg/ml): 32 µg/mL
- MIC ATB combined with Example 11 @8 μg/ml ([2]; with Example 11 at 8 μg/ml): <0.031 µg/mL
- MIC ATB combined with Example 12 @8 μg/ml ([2]; with Example 12 at 8 μg/ml): <0.031 µg/mL
- MIC ATB combined with Example 13 @8 μg/ml ([2]; with Example 13 at 8 μg/ml): >32 µg/mL
- MIC ATB combined with Example 14 @8 μg/ml ([2]; with Example 14 at 8 μg/ml): <0.031 µg/mL
- MIC ATB combined with Example 15 @4 μgml ([2]; with Example 15 at 4 μg/ml): <0.031 µg/mL
- MIC ATB combined with Example 16 @4 μg/ml ([2]; with Example 16 at 4 μg/ml): <0.031 µg/mL
- MIC ATB alone ([3]; antibiotic alone): 64 µg/mL
- MIC ATB combined with Example 1 @8 μg/ml ([3]; with Example 1 @8 μg/ml): 2 µg/mL
- MIC ATB combined with Example 1 @8 μg/ml ([3]; with Example 1 at 8 μg/ml): 2 µg/mL
- MIC ATB combined with Example 7 @8 μgml ([3]; with Example 7 at 8 μg/ml): 16 µg/mL
- MIC ATB combined with Example 9 @4 μg/ml ([3]; with Example 9 @4 μg/ml): <0.031 µg/mL
- MIC ATB combined with Example 9 @4 μg/ml ([3]; with Example 9 at 4 μg/ml): <0.031 µg/mL
- MIC ATB combined with Example 11 @8 μg/ml ([3]; with Example 11 at 8 μg/ml): <0.031 µg/mL
- MIC ATB combined with Example 12 @8 μg/ml ([3]; with Example 12 at 8 μg/ml): <0.031 µg/mL
- MIC ATB combined with Example 13 @8 μg/ml ([3]; with Example 13 at 8 μg/ml): 0.5 µg/mL
- MIC ATB combined with Example 14 @8 μg/ml ([3]; with Example 14 at 8 μg/ml): <0.031 µg/mL
- MIC ATB combined with Example 15 @4 μgml ([3]; with Example 15 at 4 μg/ml): <0.031 µg/mL
- MIC ATB combined with Example 16 @4 μg/ml ([3]; with Example 16 at 4 μg/ml): <0.031 µg/mL
- MIC ATB alone ([4]; antibiotic alone): 16 µg/mL
- MIC ATB combined with Example 1 @8 μg/ml ([4]; with Example 1 @8 μg/ml): <0.031 µg/mL
- MIC ATB combined with Example 1 @8 μg/ml ([4]; with Example 1 at 8 μg/ml): <0.031 µg/mL
- MIC ATB combined with Example 7 @8 μgml ([4]; with Example 7 at 8 μg/ml): <0.031 µg/mL
- MIC ATB combined with Example 9 @4 μg/ml ([4]; with Example 9 @4 μg/ml): <0.031 µg/mL
- MIC ATB combined with Example 9 @4 μg/ml ([4]; with Example 9 at 4 μg/ml): <0.031 µg/mL
- MIC ATB combined with Example 11 @8 μg/ml ([4]; with Example 11 at 8 μg/ml): <0.031 µg/mL
- MIC ATB combined with Example 12 @8 μg/ml ([4]; with Example 12 at 8 μg/ml): <0.031 µg/mL
- MIC ATB combined with Example 13 @8 μg/ml ([4]; with Example 13 at 8 μg/ml): <0.031 µg/mL
- MIC ATB combined with Example 14 @8 μg/ml ([4]; with Example 14 at 8 μg/ml): <0.031 µg/mL
- MIC ATB combined with Example 15 @4 μgml ([4]; with Example 15 at 4 μg/ml): <0.031 µg/mL
- MIC ATB combined with Example 16 @4 μg/ml ([4]; with Example 16 at 4 μg/ml): <0.031 µg/mL
- MIC ATB alone ([5]; antibiotic alone): 0.125 µg/mL
- MIC ATB combined with Example 1 @8 μg/ml ([5]; with Example 1 @8 μg/ml): <0.031 µg/mL
- MIC ATB combined with Example 1 @8 μg/ml ([5]; with Example 1 at 8 μg/ml): <0.031 µg/mL
- MIC ATB combined with Example 7 @8 μgml ([5]; with Example 7 at 8 μg/ml): <0.031 µg/mL
- MIC ATB combined with Example 9 @4 μg/ml ([5]; with Example 9 @4 μg/ml): <0.031 µg/mL
- MIC ATB combined with Example 9 @4 μg/ml ([5]; with Example 9 at 4 μg/ml): <0.031 µg/mL
- MIC ATB combined with Example 11 @8 μg/ml ([5]; with Example 11 at 8 μg/ml): <0.031 µg/mL
- MIC ATB combined with Example 12 @8 μg/ml ([5]; with Example 12 at 8 μg/ml): <0.031 µg/mL
- MIC ATB combined with Example 13 @8 μg/ml ([5]; with Example 13 at 8 μg/ml): <0.031 µg/mL
- MIC ATB combined with Example 14 @8 μg/ml ([5]; with Example 14 at 8 μg/ml): <0.031 µg/mL
- MIC ATB combined with Example 15 @4 μgml ([5]; with Example 15 at 4 μg/ml): <0.031 µg/mL
- MIC ATB combined with Example 16 @4 μg/ml ([5]; with Example 16 at 4 μg/ml): <0.031 µg/mL
- MIC ATB alone ([6]; antibiotic alone): 0.063 µg/mL
- MIC ATB combined with Example 1 @8 μg/ml ([6]; with Example 1 @8 μg/ml): <=0.031 μg/mL
- MIC ATB combined with Example 1 @8 μg/ml ([6]; with Example 1 at 8 μg/ml): <=0.031 μg/mL
- MIC ATB combined with Example 7 @8 μgml ([6]; with Example 7 at 8 μg/ml): <=0.031 μg/mL
- MIC ATB combined with Example 9 @4 μg/ml ([6]; with Example 9 @4 μg/ml): <0.031 µg/mL
- MIC ATB combined with Example 9 @4 μg/ml ([6]; with Example 9 at 4 μg/ml): <0.031 µg/mL
